Reference: patent publication US12540128B2, “Substituted pyridazinones as herbicides” (SYNGENTA CROP PROTECTION AG, priority 2019, dated 2026)

How the values were obtained:
Type in all cases: in vivo
Conditions in all cases: 250 g/ha, after 13 days
[1] = test system: Amaranthus retoflexus (AMARE); assay: B2 Post-Emergence Efficacy Test 2
Protocol: (§1) Seeds of a variety of test species are sown in standard soil in pots:— Amaranthus retoflexus (AMARE), Setaria faberi (SETFA), Echinochloa crus-galli (ECHCG), Ipomoea hederacea (IPOHE), Zea Mays (ZEAMX), Abutilon theophrasti (ABUTH). After 8 days cultivation (post-emergence) under controlled conditions in a glasshouse (at 24/16° C., day/night; 14 hours light; 65% humidity), the plants are sprayed with an aqueous spray solution derived from the formulation of the technical active ingredient in acetone/water (50:50) solution containing 0.5% Tween 20 (polyoxyethylene sorbitan monolaurate, CAS RN 9005-64-5). Compounds are applied at 250 g/ha. The test plants are then grown in a glasshouse under controlled conditions in a glasshouse (at 24/16° C., day/night; 14 hours light; 65% humidity) and watered twice daily. After 13 days, the test is evaluated for the percentage damage caused to the plant. The biological activities are assessed on a five point scale (5=80-100%; 4=60-79%; 3=40-59%; 2=20-39%; 1=0-19%). A blank value in the table is indicative that the compound was not tested on that species.

Setaria faberi (SETFA) [2] = assay: B2 Post-Emergence Efficacy Test 2
Protocol: as §1

[3] = test system: Echinochloa crus-galli (ECHCG); assay: B2 Post-Emergence Efficacy Test 2
Protocol: as §1

[4] = test system: Ipomoea hederacea (IPOHE); assay: B2 Post-Emergence Efficacy Test 2
Protocol: as §1

[5] = test system: Abutilon theophrasti (ABUTH); assay: B2 Post-Emergence Efficacy Test 2
Protocol: as §1

Zea Mays (ZEAMX) [6] = assay: B2 Post-Emergence Efficacy Test 2
Protocol: as §1

[7] = test system: Amaranthus retoflexus (AMARE); assay: B4 Pre-Emergence Efficacy Test 2
Protocol: (§2) Seeds of a variety of test species were sown in standard soil in pots: Amaranthus retoflexus (AMARE), Setaria faberi (SETFA), Echinochloa crus-galli (ECHCG), Ipomoea hederacea (IPOHE), Zea Mays (ZEAMX), Abutilon theophrasti (ABUTH). After cultivation for one day (pre-emergence) under controlled conditions in a glasshouse (at 24/16° C., day/night; 14 hours light; 65% humidity), the plants were sprayed with an aqueous spray solution derived from the formulation of the technical active ingredient in acetone/water (50:50) solution containing 0.5% Tween 20 (polyoxyethelyene sorbitan monolaurate, CAS RN 9005-64-5). Compounds are applied at 250 g/ha. The test plants were then grown in a glasshouse under controlled conditions (at 24/16° C., day/night; 14 hours light; 65% humidity) and watered twice daily. After 13 days, the test is evaluated for the percentage damage caused to the plant. The biological activities are assessed on a five point scale (5=80-100%; 4=60-79%; 3=40-59%; 2=20-39%; 1=0-19%). A blank value in the table is indicative that the compound was not tested on that species.

Setaria faberi (SETFA) [8] = assay: B4 Pre-Emergence Efficacy Test 2
Protocol: as §2

[9] = test system: Echinochloa crus-galli (ECHCG); assay: B4 Pre-Emergence Efficacy Test 2
Protocol: as §2

[10] = test system: Ipomoea hederacea (IPOHE); assay: B4 Pre-Emergence Efficacy Test 2
Protocol: as §2

[11] = test system: Abutilon theophrasti (ABUTH); assay: B4 Pre-Emergence Efficacy Test 2
Protocol: as §2

Zea Mays (ZEAMX) [12] = assay: B4 Pre-Emergence Efficacy Test 2
Protocol: as §2

Row | SMILES | percentage damage caused to the plant, five point scale, AMARE [1] | percentage damage caused to the plant, five point scale, SETFA (Setaria faberi (SETFA) [2]) | percentage damage caused to the plant, five point scale, ECHCG [3] | percentage damage caused to the plant, five point scale, IPOHE [4] | percentage damage caused to the plant, five point scale, ABUTH [5] | percentage damage caused to the plant, five point scale, ZEAMX (Zea Mays (ZEAMX) [6]) | percentage damage caused to the plant, five point scale, AMARE [7] | percentage damage caused to the plant, five point scale, SETFA (Setaria faberi (SETFA) [8]) | percentage damage caused to the plant, five point scale, ECHCG [9] | percentage damage caused to the plant, five point scale, IPOHE [10] | percentage damage caused to the plant, five point scale, ABUTH [11] | percentage damage caused to the plant, five point scale, ZEAMX (Zea Mays (ZEAMX) [12])
1 | Cc1nn(C)c(=O)c(-c2c(F)ccc(Cl)c2CCc2cccc3ccccc23)c1O [Compound 1.044] | 3 (3=40-59%) | 0 | 0 | 4 (4=60-79%) | 3 (3=40-59%) | 1 (1=0-19%) | 2 (2=20-39%) | 0 | 0 | 3 (3=40-59%) | 3 (3=40-59%) | 1 (1=0-19%)
2 | Cc1nn(C)c(=O)c(-c2c(F)ccc(Cl)c2CCc2ccc3ccccc3c2)c1O [Compound 1.053] | 4 (4=60-79%) | 4 (4=60-79%) | 3 (3=40-59%) | 4 (4=60-79%) | 3 (3=40-59%) | 4 (4=60-79%) | 4 (4=60-79%) | 2 (2=20-39%) | 2 (2=20-39%) | 1 (1=0-19%) | 2 (2=20-39%) | 1 (1=0-19%)
3 | Cc1nn(C)c(=O)c(-c2c(F)ccc(Cl)c2CCc2ccc3c(c2)OC(C)(C)C3)c1O [Compound 1.340] | 5 (5=80-100%) | 5 (5=80-100%) | 5 (5=80-100%) | 4 (4=60-79%) | 5 (5=80-100%) | 5 (5=80-100%) | 5 (5=80-100%) | 5 (5=80-100%) | 5 (5=80-100%) | 5 (5=80-100%) | 5 (5=80-100%) | 3 (3=40-59%)
4 | Cc1nc2ccc(CCc3c(Cl)ccc(F)c3-c3c(O)c(C)nn(C)c3=O)cc2o1 [Compound 1.341] | 5 (5=80-100%) | 4 (4=60-79%) | 5 (5=80-100%) | 5 (5=80-100%) | 5 (5=80-100%) | 4 (4=60-79%) | 5 (5=80-100%) | 5 (5=80-100%) | 5 (5=80-100%) | 5 (5=80-100%) | 5 (5=80-100%) | 4 (4=60-79%)
5 | Cc1nn(C)c(=O)c(-c2c(F)ccc(Cl)c2CCc2ccc3c(c2)OC(F)(F)O3)c1O [Compound 1.342] | 5 (5=80-100%) | 4 (4=60-79%) | 5 (5=80-100%) | 5 (5=80-100%) | 5 (5=80-100%) | 4 (4=60-79%) | 5 (5=80-100%) | 5 (5=80-100%) | 5 (5=80-100%) | – | 4 (4=60-79%) | 1 (1=0-19%)
